From patent US8933101B2, “Thia(dia)zoles as fast dissociating dopamine 2 receptor antagonists” (Janssen Pharmaceutica NV, priority 2007, dated 2015)
Counter-ions that a name gives are not always drawn.

Row | SMILES | melting point
1 | CN(c1nnc(C(F)(F)F)s1)C1CCN(Cc2cccc(F)c2)CC1 | 80.5 °C
2 | Fc1ccc(CN2CCC(Nc3nc(C(F)(F)F)cs3)CC2)cc1F (as salt: hydrochloride) | 238 °C
3 | CN(c1nnc(C(F)(F)F)s1)C1CCN(Cc2ccc(F)cc2)CC1 | 85.8 °C
4 | N#Cc1nnc(NC2CCN(Cc3ccc(F)c(F)c3)CC2)s1 | 199.4 °C

The next lines start with the values.

Row | melting point | SMILES
5 | 211.3 °C | N#Cc1nnc(NC2CCN(Cc3cc(F)c(F)c(F)c3)CC2)s1
6 | 130.2 °C | Fc1cc(CN2CCC(Nc3nnc(C(F)(F)F)s3)CC2)ccc1C(F)(F)F
7 | 116.3 °C | FC(F)(F)Oc1cccc(CN2CCC(Nc3nnc(C(F)(F)F)s3)CC2)c1
